Laboratory results taken from patent US9801372B2, “Polymers for increasing the soil mobility of low-solubility insecticides” (BASF SE, priority 2009, dated 2017).

Procedure: First, a calibration with the active ingredient to be determined is performed at a suitable wavelength in different concentrations. To study the solubilization with a polymeric solubilizer, a 1% by weight polymer solution is prepared and the UV absorption is measured at said wavelength. The polymer solution is saturated with the active ingredient to be analyzed and equilibrated for 24 h. After centrifugation of the solution and UV analysis of the supernatant at said wavelength, after subtracting the polymer absorption over the calibration curve, the dissolved active ingredient concentration can be concluded.
The fipronil concentration was determined by means of UV spectroscopy at 278 nm; to this end, the absorption of the polymer (1% by weight in water) was first determined alone. Subsequently, an excess of fipronil was added and the mixture was stirred at room temperature overnight. The centrifuged solution was analyzed once again at 278 nm in the UV instrument. After subtracting the appropriate solubilizer spectrum and comparing by means of a fipronil calibration curve produced beforehand, it was possible to determine the concentration of dissolved fipronil.

| Compound | Fipronil solubility in ppm |
| --- | --- |
| N#Cc1nn(-c2c(Cl)cc(C(F)(F)F)cc2Cl)c(N)c1[S+]([O-])C(F)(F)F (centres unmarked) [Fipronil] | 2.2 ppm |
| Triton X-100 | 13 ppm |
